From paper PMC5610480, “Original Chemical Series of Pyrimidine Biosynthesis Inhibitors That Boost the Antiviral Interferon Response” (Antimicrobial Agents and Chemotherapy, 2017)
Where two headings read alike, the source gives them in different places.

How the values were obtained:
[1] = test system: ISRE-luciferase reporter gene; experiment: ISRE-luciferase induction in STING-37 reporter cells; settings: STING-37 cells, 24 h, increasing doses
MV-Luc [2] = test system: MV-Luc; parameters: method as in PMID 25558988; settings: HEK-293T cells; previously reported ref 9; read-out: IC50, inhibition of MV-Luc; cited from earlier work
[3] = test system: de novo pyrimidine biosynthesis; experiment: Intracellular nucleoside/nucleotide and UDP-sugar levels by HPLC; format: cell-based, human
in vitro = settings: human
MV-Luc [4] = experiment: microbe, parasite or virus in culture; format: cell-based, measles virus (MV); settings: for IC50: Measles morbillivirus, HEK-293T, 24 h, read-out: IC50 (μM), inhibition of MV-Luc; for antiviral potency relative to DD363: MV-Luc IC50, fold higher than for DD363
IFN biological activity = IFN biological activity of culture supernatants on fresh STING-37 cells; settings: no ssRNA, supernatants at 48 h
IFN-β = experiment: RT-qPCR gene expression in STING-37 cells: IFN-β; format: cell-based, human; settings: 30 μM, 24 h, DMSO None = 1
Protocol: (§1) To further document the consequences of DD778 treatment on the cellular response to ssRNA, mRNA levels for RIG-I, MDA5, oligoadenylate synthase-like protein (OASL), IFN-α4, IFN-β, IFN-λ1, and IFN-λ2/3 were determined by reverse transcription-quantitative PCR (RT-qPCR). […] Furthermore, the effects of DD778 on the expression of these genes could be reversed by the addition of uridine in culture medium. […] In parallel, we measured in culture supernatants the concentrations of IFN-β, IFN-λ1, IFN-λ2/3, and interferon-inducible protein of 10 kDa (IP-10), which is a well-characterized IFN-inducible chemokine (Fig. 7C). […] This illustrates an original mechanism by which cells can communicate with neighbors on their metabolic status.
(§2) Upper images correspond to representative experiments.

MDA5 [5] = experiment: RT-qPCR gene expression in STING-37 cells: MDA5; format: cell-based, human; settings: 30 μM, 24 h, DMSO None = 1
Protocol: as §1, §2

IFN-λ1 = experiment: RT-qPCR gene expression in STING-37 cells: IFN-λ1; format: cell-based, human; settings: 30 μM, 24 h, DMSO None = 1
Protocol: as §1, §2

IFN-α4 = experiment: RT-qPCR gene expression in STING-37 cells: IFN-α4; format: cell-based, human; settings: 30 μM, 24 h, DMSO None = 1
Protocol: as §1, §2

[6] = test system: ISRE-luciferase reporter gene; experiment: ISRE-luciferase response to MV infection in STING-37 cells; settings: 30 μM added 9 h after infection, read 16 h later
RIG-I [7] = experiment: RT-qPCR gene expression in STING-37 cells: RIG-I; format: cell-based, human; settings: 30 μM, 24 h, DMSO None = 1
Protocol: as §1, §2

MDA5 [8] = experiment: Western blotting of MDA5 in STING-37 cells
[9] = test system: IFN-β, IFN-λ1, IFN-λ2/3, and IP-10; experiment: Cytokines in culture supernatants, LEGENDplex
OASL = experiment: RT-qPCR gene expression in STING-37 cells: OASL; format: cell-based, human; settings: 30 μM, 24 h, DMSO None = 1
Protocol: as §1, §2

IFN-λ2/3 = experiment: RT-qPCR gene expression in STING-37 cells: IFN-λ2/3; format: cell-based, human; settings: 30 μM, 24 h, DMSO None = 1
Protocol: as §1, §2

MV-Luc [10] = experiment: Complementation of MV-Luc inhibition with uridine, DHO or orotate; settings: 24 h
RIG-I [11] = experiment: Western blotting of RIG-I in STING-37 cells
[12] = test system: CHIKV expressing Renilla luciferase; experiment: microbe, parasite or virus in culture; format: cell-based; settings: Chikungunya virus, HEK-293T, 24 h, read-out: IC50, CHIKV Renilla luciferase
DHODH = test system: DHODH; parameters: method as in PMID 20183850; settings: read-out: IC50 on the recombinant enzyme; cited from earlier work
[13] = MV MOI 2, 30 μM added at 9 h, 39 h more

Cc1c(-c2ccc(-c3ccccc3F)cc2)nc2ccc(F)cc2c1C(=O)O [Brequinar, brequinar, reference compound]
induction of the ISRE-luciferase gene (compound alone) [1]: induced
IC50 (MV-Luc [2]): 40 nM
inhibition of de novo pyrimidine biosynthesis ([3]; submicromolar concentrations, 24 h): inhibited

O=C1CCCc2occ(-c3cccc(Cl)c3)c21 [DD264, reference compound]
CC50 at 24 h (in vitro): > 80 µM
IC50 (MV-Luc [4]): 15 ± 2 µM

O=c1oc2ccccc2c2c1C(c1cccc(Cl)c1)C([N+](=O)[O-])O2 (centres unmarked) [DD311]
CC50 at 24 h (in vitro): > 50 µM
IC50 (MV-Luc [4]): 47 ± 4 µM

O=c1oc2ccc(Cl)cc2c2c1C(c1c[nH]c3ccccc13)C([N+](=O)[O-])O2 (centres unmarked) [DD771]
CC50 at 24 h (in vitro): > 50 µM
antiviral potency relative to DD363 (MV-Luc [4]): 2- to 9 fold
IC50 (MV-Luc [4]): 1.7 ± 0.4 µM

Cc1cc2oc(=O)c3c(c2cc1C)OC([N+](=O)[O-])C3c1c[nH]c2ccccc12 (centres unmarked) [DD775]
CC50 at 24 h (in vitro): > 50 µM
IC50 (MV-Luc [4]): 1.7 ± 0.4 µM

O=c1oc2ccc(F)cc2c2c1C(c1c[nH]c3ccccc13)C([N+](=O)[O-])O2 (centres unmarked) [DD776]
CC50 at 24 h (in vitro): > 50 µM
antiviral potency relative to DD363 (MV-Luc [4]): 2- to 9 fold
IC50 (MV-Luc [4]): 3.8 ± 0.8 µM

Cc1ccc2oc(=O)c3c(c2c1)OC([N+](=O)[O-])C3c1c[nH]c2ccccc12 (centres unmarked) [DD778]
CC50 at 24 h (in vitro): 207 ± 20 µM
IFN activity in supernatants of cells treated with compound alone (IFN biological activity): did not show any IFN activity
IFN-β expression level (RT-qPCR) (IFN-β; ssRNA (60 ng/well)): 4±3
IFN-β expression level (RT-qPCR) (IFN-β; ssRNA (120 ng/well)): 17±5
IFN-β expression level (RT-qPCR) (IFN-β; ssRNA: None): 1.5±0.8
MDA5 expression level (RT-qPCR) (MDA5 [5]; ssRNA (60 ng/well)): 5±1
MDA5 expression level (RT-qPCR) (MDA5 [5]; ssRNA (120 ng/well)): 23±2
MDA5 expression level (RT-qPCR) (MDA5 [5]; ssRNA: None): 1.1±0.1
IFN-λ1 expression level (RT-qPCR) (IFN-λ1; ssRNA (60 ng/well)): 14±3
IFN-λ1 expression level (RT-qPCR) (IFN-λ1; ssRNA (120 ng/well)): 130±10
IFN-λ1 expression level (RT-qPCR) (IFN-λ1; ssRNA: None): 1.9±0.6
antiviral potency relative to DD363 (MV-Luc [4]): 2- to 9 fold
IC50 (MV-Luc [4]): 2.9 ± 0.3 µM
IFN-α4 expression level (RT-qPCR) (IFN-α4; ssRNA (60 ng/well)): 1.3±0.7
IFN-α4 expression level (RT-qPCR) (IFN-α4; ssRNA (120 ng/well)): 1.4±0.6
IFN-α4 expression level (RT-qPCR) (IFN-α4; ssRNA: None): 1.3±0.7
cellular response to MV infection (ISRE-luciferase) [6]: efficiently boosted
induction of the ISRE-luciferase gene (compound alone) [1]: induced
RIG-I expression level (RT-qPCR) (RIG-I [7]; ssRNA (60 ng/well)): 12±5
RIG-I expression level (RT-qPCR) (RIG-I [7]; ssRNA (120 ng/well)): 57±9
RIG-I expression level (RT-qPCR) (RIG-I [7]; ssRNA: None): 1.3±0.4
MDA5 protein expression, ssRNA-transfected cells (MDA5 [8]; 30 μM, 48 h): promoted the expression
effects on MDA5 protein expression, MV-infected cells (MDA5 [8]; [13]): limited
expression of IFN-β, IFN-λ1, IFN-λ2/3, and IP-10 in supernatants, ssRNA-stimulated cells ([9]; 30 μM, 120 ng ssRNA, 48 h): increased the expression
IFN-β expression in supernatants, MV-infected cells [9, 13]: not statistically enhanced
expression of IFN-λ1, IFN-λ2/3, and IP-10 in supernatants, MV-infected cells [9, 13]: efficiently increased
OASL expression level (RT-qPCR) (OASL; ssRNA (60 ng/well)): 17±3
OASL expression level (RT-qPCR) (OASL; ssRNA (120 ng/well)): 111±21
OASL expression level (RT-qPCR) (OASL; ssRNA: None): 3±2
intracellular UDP-Gal level ([3]; HEK-293T cells treated 24 h): collapsed
intracellular UDP-GalNac level ([3]; HEK-293T cells treated 24 h): maintained at high levels
purine levels (A and G) ([3]; HEK-293T cells treated 24 h): unaffected
uridine (U) and cytidine (C) levels ([3]; HEK-293T cells treated 24 h): collapsed
IFN-λ2/3 expression level (RT-qPCR) (IFN-λ2/3; ssRNA (60 ng/well)): 7±1
IFN-λ2/3 expression level (RT-qPCR) (IFN-λ2/3; ssRNA (120 ng/well)): 55±12
IFN-λ2/3 expression level (RT-qPCR) (IFN-λ2/3; ssRNA: None): 1.4±0.7
effect of DHO on viral replication in treated cells (MV-Luc [10]; DD778 10 μM, DHO 3 mM): no effect
effect of uridine and orotate on viral replication in treated cells (MV-Luc [10]; DD778 10 μM, uridine 130 μM, orotate 3 mM): restore viral replication
RIG-I protein expression, ssRNA-transfected cells (RIG-I [11]; 30 μM, 48 h): promoted the expression
RIG-I protein expression, MV-infected cells (RIG-I [11]; [13]): boosted
IC50 [12]: 1400 ± 200 nM

O=c1oc2ccc(Cl)cc2c2c1C(c1c[nH]c3ccc(Br)cc13)C([N+](=O)[O-])O2 (centres unmarked) [DD783]
CC50 at 24 h (in vitro): > 50 µM
IC50 (MV-Luc [4]): 42 ± 7 µM

Cc1ccc2oc(=O)c3c(c2c1)OC([N+](=O)[O-])C3c1c[nH]c2ccc(Br)cc12 (centres unmarked) [DD784]
CC50 at 24 h (in vitro): > 50 µM
IC50 (MV-Luc [4]): 40 ± 7 µM

O=C1C(=O)c2ccccc2C2=C1C(c1c[nH]c3ccccc13)C([N+](=O)[O-])O2 (centres unmarked) [DD785]
CC50 at 24 h (in vitro): > 50 µM
IC50 (MV-Luc [4]): > 50 µM

Cc1cc2c(c(=O)o1)C(c1c[nH]c3ccccc13)C([N+](=O)[O-])O2 (centres unmarked) [DD786]
CC50 at 24 h (in vitro): > 50 µM
IC50 (MV-Luc [4]): > 50 µM
induction of the ISRE-luciferase gene (compound alone) [1]: unable to do so

Cn1c(=O)c2c(c3ccccc31)OC([N+](=O)[O-])C2c1c[nH]c2ccccc12 (centres unmarked) [DD787]
CC50 at 24 h (in vitro): > 50 µM
IC50 (MV-Luc [4]): 16 ± 3 µM

O=c1oc2ccccc2c(O)c1Cc1c(O)c2ccccc2oc1=O [Dicoumarol, dicoumarol, reference compound]
IC50 (MV-Luc [4]): 12 ± 0.3 µM
induction of the ISRE-luciferase gene (compound alone) [1]: induced
IC50 (DHODH): 6.6 µM
antiviral effect when culture medium is supplemented with uridine (MV-Luc [10]; uridine 130 μM): fully reversed

Cn1cc(C2c3c(c4cc(Cl)ccc4oc3=O)OC2[N+](=O)[O-])c2ccccc21 (centres unmarked) [JP10]
CC50 at 24 h (in vitro): > 50 µM
IC50 (MV-Luc [4]): > 50 µM

Cc1[nH]c2ccccc2c1C1c2c(c3cc(Cl)ccc3oc2=O)OC1[N+](=O)[O-] (centres unmarked) [JP25]
CC50 at 24 h (in vitro): > 50 µM
IC50 (MV-Luc [4]): 47 ± 7 µM

O=c1oc2ccccc2c(O)c1C(C[N+](=O)[O-])c1c[nH]c2ccccc12 (centres unmarked) [JP39]
CC50 (in vitro): > 50 µM
IC50 (MV-Luc [4]): > 50 µM

O=c1oc2ccccc2c2c1C(c1c[nH]c3ccccc13)CO2 (centres unmarked) [JP42]
CC50 at 24 h (in vitro): > 50 µM
IC50 (MV-Luc [4]): 16 ± 3 µM

O=c1oc2ccc(Cl)cc2c2c1C(c1c[nH]c3ccccc13)CO2 (centres unmarked) [JP46]
CC50 at 24 h (in vitro): 50 ± 8 µM
decrease of antiviral potency relative to DD771 (MV-Luc [4]; MV-Luc IC50): 9 fold
IC50 (MV-Luc [4]): 16 ± 4 µM

CCc1ccc2oc(=O)c3c(c2c1)OC([N+](=O)[O-])C3c1c[nH]c2ccccc12 (centres unmarked) [JP49]
CC50 at 24 h (in vitro): > 50 µM
antiviral potency relative to DD363 (MV-Luc [4]): 2- to 9 fold
IC50 (MV-Luc [4]): 5.3 ± 1.1 µM

O=c1oc2ccc(Br)cc2c2c1C(c1c[nH]c3ccccc13)C([N+](=O)[O-])O2 (centres unmarked) [JP52]
CC50 at 24 h (in vitro): > 50 µM
antiviral potency relative to DD363 (MV-Luc [4]): 2- to 9 fold
IC50 (MV-Luc [4]): 1.2 ± 0.2 µM

C/C(O)=C(\C#N)C(=O)Nc1ccc(C(F)(F)F)cc1 [Teriflunomide, teriflunomide]
IC50 (MV-Luc [2]): 5000 nM
